Patent US8680275B2, “Fused heterocyclic compounds as orexin receptor modulators” (Janssen Pharmaceutica NV, priority 2009, dated 2014)

Legend:
[1] = target: human orexin 1 receptor (Homo sapiens (Human), UniProt O43613); experiment: Human orexin 1 receptor radioligand binding ([3H]-SB674042 competition); details: CHO cells stably expressing human orexin 1 receptor; [3H]-SB674042 4 nM final; read-out: OR-1 Ki
Summary of the method: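 CHO cells stably expressing human OX1R incubated 60 min at room temperature with [3H]-SB674042 and compounds (7 concentrations, 0.1 nM–10 μM; DMSO ≤0.1%) in PBS. Nonspecific binding defined with 10 μM of a reference urea antagonist; bound radioactivity measured by filtration and scintillation counting.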

[2] = target: human orexin-2 receptor (Homo sapiens (Human), UniProt O43614); experiment: Human orexin 2 receptor radioligand binding ([3H]-EMPA competition); details: HEK293 cells stably expressing human orexin-2 receptor; [3H]-EMPA 5 nM final; read-out: OR-2 Ki
Summary of the method: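 Competition binding on HEK293 cells stably expressing human orexin-2 receptor, using 5 nM final [3H]-EMPA in PBS, compounds 0.1 nM to 10 μM (DMSO ≤0.1%). 60 min at room temperature, then filtration and scintillation counting; nonspecific binding defined with 10 μM of a reference antagonist.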

Chain of human orexin 1 receptor (O43613 whole entry): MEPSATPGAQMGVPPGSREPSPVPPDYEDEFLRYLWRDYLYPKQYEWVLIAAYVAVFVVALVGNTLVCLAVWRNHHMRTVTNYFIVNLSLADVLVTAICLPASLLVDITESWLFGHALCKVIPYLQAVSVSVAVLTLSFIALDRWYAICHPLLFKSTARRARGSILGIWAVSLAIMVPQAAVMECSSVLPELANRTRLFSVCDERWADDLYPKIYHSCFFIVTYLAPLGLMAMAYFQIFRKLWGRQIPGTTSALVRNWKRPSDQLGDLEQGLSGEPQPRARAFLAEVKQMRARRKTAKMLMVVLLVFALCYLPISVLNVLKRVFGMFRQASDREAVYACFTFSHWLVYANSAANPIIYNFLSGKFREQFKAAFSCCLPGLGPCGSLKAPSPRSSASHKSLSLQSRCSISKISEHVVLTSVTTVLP
Chain of human orexin-2 receptor (O43614 whole entry): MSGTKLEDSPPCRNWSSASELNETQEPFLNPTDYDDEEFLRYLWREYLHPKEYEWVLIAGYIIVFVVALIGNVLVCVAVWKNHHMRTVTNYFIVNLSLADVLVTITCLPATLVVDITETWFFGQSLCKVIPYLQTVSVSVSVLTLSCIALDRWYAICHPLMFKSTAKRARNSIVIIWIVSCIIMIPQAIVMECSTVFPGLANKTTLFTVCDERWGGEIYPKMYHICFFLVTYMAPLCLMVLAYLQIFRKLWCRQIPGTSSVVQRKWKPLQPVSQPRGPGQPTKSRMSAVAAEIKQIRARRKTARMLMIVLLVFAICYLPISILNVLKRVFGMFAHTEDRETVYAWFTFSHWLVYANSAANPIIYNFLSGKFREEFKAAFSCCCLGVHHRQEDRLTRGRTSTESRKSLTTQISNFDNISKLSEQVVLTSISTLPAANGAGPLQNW

Row | SMILES | Ki [1] [µM] | Ki [2] [µM]
1 | Cc1cnc(C)c(N2C[C@@H]3CCN(C(=O)c4c(F)cccc4-n4nccn4)C[C@@H]32)n1 [Example 98, (1R,6S)-8-(3,6-Dimethylpyrazin-2-yl)-3-{[2-fluoro-6-(2H-1,2,3-triazol-2-yl)phenyl]carbonyl}-3,8-diazabicyclo[4.2.0]octane] | 4.92 | 0.274
2 | O=C(c1cc(F)ccc1-n1nccn1)N1CC[C@H]2CN(c3nccc(C(F)(F)F)n3)[C@H]2C1 [Example 94, (1R,6S)-3-{[5-Fluoro-2-(2H-1,2,3-triazol-2-yl)phenyl]carbonyl}-8-[4-(trifluoromethyl)pyrimidin-2-yl]-3,8-diazabicyclo[4.2.0]octane] | 10 | 0.37
3 | Cc1cc(N2C[C@@H]3CCN(C(=O)c4ccccc4-n4nccn4)C[C@@H]32)nc(C(F)(F)F)n1 [Example 35, (1R,6S)-[8-(6-Methyl-2-trifluoromethyl-pyrimidin-4-yl)-3,8-diaza-bicyclo[4.2.0]oct-3-yl]-(2-[1,2,3]triazol-2-yl-phenyl)-methanone] | 0.117 | 0.024
4 | Cc1nccnc1N1C[C@@H]2CCN(C(=O)c3ccc(F)cc3-n3nccn3)C[C@@H]21 [Example 108, (1R,6S)-3-{[4-Fluoro-2-(2H-1,2,3-triazol-2-yl)phenyl]carbonyl}-8-(3-methylpyrazin-2-yl)-3,8-diazabicyclo[4.2.0]octane] | 10 | 10
5 | O=C(c1ccc(F)cc1-n1nccn1)N1CC[C@H]2CN(c3cnc4ccccc4n3)[C@H]2C1 [Example 115, 2-[(1R,6S)-3-{[4-Fluoro-2-(2H-1,2,3-triazol-2-yl)phenyl]carbonyl}-3,8-diazabicyclo[4.2.0]oct-8-yl]quinoxaline] | 0.177 | 0.06
6 | COc1cccc(OC)c1C(=O)N1CCC2CN(c3cnc4ccccc4n3)C2C1 (stereo not drawn) [Example 12, (2,6-Dimethoxy-phenyl)-(8-quinoxalin-2-yl-3,8-diaza-bicyclo[4.2.0]oct-3-yl)-methanone] | 0.659 | 0.209

Continued by falling Ki [1], values first:

Row | Ki [1] [µM] | Ki [2] [µM] | SMILES
7 | 5 | 0.192 | Cc1ccc(-n2nccn2)c(C(=O)N2CC3CN(c4nc(C)cc(C)n4)C3C2)c1 (stereo not drawn) [Example 68, 6-(4,6-Dimethylpyrimidin-2-yl)-3-{[5-methyl-2-(2H-1,2,3-triazol-2-yl)phenyl]carbonyl}-3,6-diazabicyclo[3.2.0]heptane]
8 | 0.047 | 0.015 | CN(C)c1nc(N2C[C@@H]3CCN(C(=O)c4cc(F)ccc4-n4nccn4)C[C@@H]32)cc(C(F)(F)F)n1 [Example 46, (1R,6S)-[8-(2-Dimethylamino-6-trifluoromethyl-pyrimidin-4-yl)-3,8-diaza-bicyclo[4.2.0]oct-3-yl]-(5-fluoro-2-[1,2,3]triazol-2-yl-phenyl)-methanone]
9 | 0.033 | 0.04 | O=C(c1cc(F)ccc1-n1nccn1)N1CC[C@H]2CN(c3cnc4ccccc4n3)[C@H]2C1 [Example 118, 2-[(1R,6S)-3-{[5-Fluoro-2-(2H-1,2,3-triazol-2-yl)phenyl]carbonyl}-3,8-diazabicyclo[4.2.0]oct-8-yl]quinoxaline]
